Laboratory results: ChEMBL document CHEMBL5236569, “Emodin lows NPC1L1-mediated cholesterol absorption as an uncompetitive inhibitor” (2022)
Calls of active or inactive are those of the source. The rule behind the calls is not given here.

How the values were obtained:
[1] = Inhibition of cholesterol uptake in human HepG2 cells at 12.5 uM relative to control; format: functional
[2] = Inhibition of cholesterol uptake in human Caco-2 cells at 12.5 uM relative to control; format: functional
[3] = Inhibition of cholesterol uptake in human HepG2 cells at 75 uM relative to control; format: functional
[4] = Inhibition of cholesterol uptake in human Caco-2 cells at 100 uM relative to control; format: functional
HepG2 = test: Effect on NPC1L1 expression in human HepG2 cells at 1 to 100 uM incubated for 24 hrs; format: functional, cell-based; settings: dose 1-100 µM
[5] = Inhibition of cholesterol uptake in human HepG2 cells at 50 uM relative to control; format: functional
[6] = Inhibition of cholesterol uptake in human Caco-2 cells at 50 uM relative to control; format: functional
[7] = Inhibition of cholesterol uptake in human Caco-2 cells at 75 uM relative to control; format: functional
[8] = molecular target: T1, NPC1-like intracellular cholesterol transporter 1 (Homo sapiens) (UniProt Q9UHC9); test: Inhibition of NPC1L1in human HepG2 cells assessed as increase in intracellular cholesterol content incubated for 60 mins by filipin dye based confocal microscopy analysis; format: cell-based
T1 sequence (whole entry): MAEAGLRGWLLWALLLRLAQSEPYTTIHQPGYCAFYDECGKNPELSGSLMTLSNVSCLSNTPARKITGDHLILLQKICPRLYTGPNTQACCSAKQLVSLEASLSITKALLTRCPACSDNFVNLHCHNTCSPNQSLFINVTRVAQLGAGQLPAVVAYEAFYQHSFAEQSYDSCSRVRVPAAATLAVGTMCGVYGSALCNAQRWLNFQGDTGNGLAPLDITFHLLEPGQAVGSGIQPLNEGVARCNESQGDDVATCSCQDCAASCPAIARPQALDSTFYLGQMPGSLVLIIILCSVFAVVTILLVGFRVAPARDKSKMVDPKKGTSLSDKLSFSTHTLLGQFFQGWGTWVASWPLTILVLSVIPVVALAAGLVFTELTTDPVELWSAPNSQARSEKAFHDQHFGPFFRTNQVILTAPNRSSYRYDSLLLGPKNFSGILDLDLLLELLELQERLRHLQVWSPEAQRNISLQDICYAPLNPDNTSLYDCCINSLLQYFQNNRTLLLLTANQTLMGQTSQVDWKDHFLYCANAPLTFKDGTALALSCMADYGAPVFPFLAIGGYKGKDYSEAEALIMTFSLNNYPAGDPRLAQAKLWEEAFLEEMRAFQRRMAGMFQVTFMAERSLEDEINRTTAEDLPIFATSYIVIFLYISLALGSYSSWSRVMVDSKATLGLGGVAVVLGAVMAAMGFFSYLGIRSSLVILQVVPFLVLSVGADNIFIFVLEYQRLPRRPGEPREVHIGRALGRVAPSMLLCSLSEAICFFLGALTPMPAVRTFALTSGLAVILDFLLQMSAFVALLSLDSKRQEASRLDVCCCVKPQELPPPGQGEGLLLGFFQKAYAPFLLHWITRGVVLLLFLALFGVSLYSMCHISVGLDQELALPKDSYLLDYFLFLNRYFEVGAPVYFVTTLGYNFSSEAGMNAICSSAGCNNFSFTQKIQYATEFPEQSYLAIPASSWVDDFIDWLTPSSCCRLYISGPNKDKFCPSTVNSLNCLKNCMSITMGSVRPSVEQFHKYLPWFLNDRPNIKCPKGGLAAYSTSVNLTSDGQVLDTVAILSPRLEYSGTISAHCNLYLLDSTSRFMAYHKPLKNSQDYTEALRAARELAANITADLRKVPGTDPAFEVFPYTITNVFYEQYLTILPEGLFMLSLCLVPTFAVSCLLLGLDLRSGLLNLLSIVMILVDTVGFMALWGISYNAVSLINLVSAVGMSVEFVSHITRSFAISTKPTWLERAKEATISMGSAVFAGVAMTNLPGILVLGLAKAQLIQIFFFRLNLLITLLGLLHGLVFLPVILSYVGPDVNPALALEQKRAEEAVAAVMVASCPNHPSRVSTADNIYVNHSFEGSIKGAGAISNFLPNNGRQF

[9] = Inhibition of cholesterol uptake in human HepG2 cells at 25 uM relative to control; format: functional
[10] = Inhibition of cholesterol uptake in human Caco-2 cells at 25 uM relative to control; format: functional
[11] = molecular target: T1, NPC1-like intracellular cholesterol transporter 1 (Homo sapiens); test: […] inhibition of NPC1L1 (unknown origin) assessed as decrease in Km at upto 150 uM by Lineweaver-burk double inverse plot analysis
[12] = Inhibition of cholesterol uptake in human HepG2 cells at 100 uM relative to control; format: functional
[13] = molecular target: T1, NPC1-like intracellular cholesterol transporter 1 (Homo sapiens); test: […] inhibition of NPC1L1 (unknown origin) assessed as decrease in Vmax at upto 150 uM by Lineweaver-burk double inverse plot analysis
[14] = molecular target: T1, NPC1-like intracellular cholesterol transporter 1 (Homo sapiens); test: Inhibition of NPC1L1in human HepG2 cells assessed as reduction in intracellular cholesterol content incubated for 60 mins by filipin dye based confocal microscopy analysis; format: cell-based

Structure (SMILES) | inhibition at 12.5 µM [1] [%] | inhibition at 12.5 µM [2] [%] | inhibition at 75 µM [3] [%] | inhibition at 100 µM [4] [%] | Activity (HepG2) | inhibition at 50 µM [5] [%] | inhibition at 50 µM [6] [%] | inhibition at 75 µM [7] [%] | Activity [8] | inhibition at 25 µM [9] [%] | inhibition at 25 µM [10] [%] | Activity [11] | inhibition at 100 µM [12] [%] | Activity [13] | Activity [14]
Cc1cc(O)c2c(c1)C(=O)c1cc(O)cc(O)c1C2=O [EMODIN] | 52.6 | 44.3 | 31.3 | 29 | Active | 33.6 | 32.3 | 28 | Active | 41.6 | 39.6 | Active | 27 | Active | Active
O=C1[C@H](CC[C@H](O)c2ccc(F)cc2)[C@@H](c2ccc(O)cc2)N1c1ccc(F)cc1 [EZETIMIBE] | – | – | – | 70 | – | – | – | – | Active | – | – | – | 48.3 | – | inactive
